Data as given in patent US20180369327A1, “METHOD FOR TREATING OR PREVENTING OSTEOARTHRITIS” (Dong-A University Research Foundation for Industry-Academy …, priority 2017, published 2018).
“Also recorded” adds a separate entry of the source.

Legend:
[1] = system: rat articular chondrocytes; assay: Cell viability assay (automated trypan blue exclusion); format: cell-based; conditions: n=4
Procedure: Rat articular chondrocytes for primary culture were isolated from knee joint cartilage slices by enzymatic digestion for 1 h with 0.2% type II collagenase (381 units/mg) in DMEM. After the isolated cells were collected by brief centrifugation, they were resuspended in DMEM supplemented with 10% (v/v) FBS, […] streptomycin and 50 units/ml penicillin (Gibco). The cells were plated on culture dishes at a density of 5×10^4 cells/cm^2. The medium was replaced every 2 days, and they reached confluence after approximately 5 days in culture. In each experiment, the cells from three animals were pooled and analyzed three times.
FFA were dissolved in absolute ethanol at a concentration of 500 mM and diluted to final concentrations of FFAs with the appropriate concentration of 1% (w/v) FFA-free BSA. Controls were incubated with equal concentrations of FFA-free BSA containing ethanol. To examine the effect of several chemicals, cells were pretreated with 150 μg/mL DRB or 30 μM cilostazol for 24 h or 25 ng/ml TNF-α for 3 h before FFA treatment.
siRNA transfection or combination treatment with FFAs. Transfection of siRNA was performed with the use of siPORT Amine and Opti-MEM media. Cells grown to a confluence of 40% to 50% in six-well plates were transfected with 100 nM final siRNA concentration per well. Transfection mixture was added to each well, and incubation occurred for 4 h. Then 2 ml of growth medium was added, and cells were incubated for another 20 h. After siRNA transfection medium was removed, each well was washed in PBS solution. Cells were treated with FFAs for 24 hours.
Recombinant adenoviral STAMP2 was prepared as described previously34. Cells (1×10^7) were infected with recombinant adenoviral STAMP2 at multiplicities of infection (MOI) of 500, 1000 and 1500 to the medium.
An automated trypan blue exclusion assay was undertaken. Total cells and trypan bluestained (i.e., nonviable) cells were counted, and the percentage of nonviable cells was calculated using the Vi-Cell cell counter (Beckman Coulter, Miami, Fla., USA).

STAMP2 = assay: Western blot of STAMP2 protein in articular chondrocytes; format: cell-based, rat; conditions: n=4
Procedure: (§1) Rat articular chondrocytes for primary culture were isolated from knee joint cartilage slices by enzymatic digestion for 1 h with 0.2% type II collagenase (381 units/mg) in DMEM. After the isolated cells were collected by brief centrifugation, they were resuspended in DMEM supplemented with 10% (v/v) FBS, […] streptomycin and 50 units/ml penicillin (Gibco). The cells were plated on culture dishes at a density of 5×10^4 cells/cm^2. The medium was replaced every 2 days, and they reached confluence after approximately 5 days in culture. In each experiment, the cells from three animals were pooled and analyzed three times. FFA were dissolved in absolute ethanol at a concentration of 500 mM and diluted to final concentrations of FFAs with the appropriate concentration of 1% (w/v) FFA-free BSA. Controls were incubated with equal concentrations of FFA-free BSA containing ethanol. […] Cell (2×10^6) were washed twice with ice-cold PBS. Cells were resuspended in lysis buffer [200 ll of icecold solubilizing buffer (300 mM NaCl, 50 mM Tris-Cl (pH 7.6), 0.5% Triton X-100, protease inhibitor cocktail)] and incubated at 4° C. for 30 min. The lysates were centrifuged at 14,000 rpm for 20 min at 4° C. The protein concentrations of the cell lysates were measured with the Bradford protein assay reagent (Bio-Rad). Then, 50 μg of proteins was loaded onto 15 SDS-PAGE. The separated proteins were transferred to nitrocellulose membranes (Amersham Pharmacia Biotech, Piscataway, N.J., USA) and probed with each antibody. Immunostaining with the antibodies was carried out using the Super Signal West Pico enhanced chemiluminescence substrate and detected with LAS-3000PLUS.

FSP27 = assay: Western blot of FSP27 protein in articular chondrocytes; format: cell-based, rat; conditions: n=4
Procedure: as §1

caspase-3 and -7 = assay: Western blot of apoptosis-related factors (caspase-3 and -7 activation); format: cell-based, rat; conditions: 100 μM DRB with 1 mM oleate; n=4
Procedure: as §1, with “The lysates were centrifuged at 14,000 rpm for 20 min at 4° C.” left out, “Then, 50 μg of proteins was loaded onto 15 SDS-PAGE. The separated proteins were transferred to nitrocellulose membranes (Amersham Pharmacia Biotech, Piscataway, N.J., USA) and probed with each antibody.” left out

[2] = system: lipid droplets (LD) in rat articular chondrocytes; assay: Lipid droplet staining (Nile red, BODIPY), confocal microscopy and quantification; format: cell-based
Procedure: Rat articular chondrocytes for primary culture were isolated from knee joint cartilage slices by enzymatic digestion for 1 h with 0.2% type II collagenase (381 units/mg) in DMEM. After the isolated cells were collected by brief centrifugation, they were resuspended in DMEM supplemented with 10% (v/v) FBS, […] streptomycin and 50 units/ml penicillin (Gibco). The cells were plated on culture dishes at a density of 5×10^4 cells/cm^2. The medium was replaced every 2 days, and they reached confluence after approximately 5 days in culture. In each experiment, the cells from three animals were pooled and analyzed three times. FFA were dissolved in absolute ethanol at a concentration of 500 mM and diluted to final concentrations of FFAs with the appropriate concentration of 1% (w/v) FFA-free BSA. Controls were incubated with equal concentrations of FFA-free BSA containing ethanol. […] Cells cultured on a coverslip were incubated with diluted Nile red or BODIPY 493/503. Some sections were double-labelled with TUNEL and BODIPY 493/503 and counterstained with Hoechst 33342. Fluorescence images were observed and analyzed using a Zeiss LSM 510 laser-scanning confocal microscope (Goettingen, Germany). Twenty cells from each experiment were observed and auantification of fluorescence intensity of the confocal images were obtained with the use of ImageJ software. Fluorescence intensity was expressed as AU.

[3] = system: rat articular chondrocytes; assay: Total cytosol FFA content measurement; format: cell-based
Procedure: Cell were collected after treatment with trypsin (0.2% trypsin, 0.02% EDTA and 0.2% glucose in PBS) and pelleted by centrifugation (200×g for 5 min at 4° C.). Cell pellet was resuspended in ice-cold hypotonic lysis medium containing 20 mM Tris-HCl, pH 7.4 and 1 mM EDTA. Cells were homogenized with a Dounce homogenizer and then centrifuged (800×g for 5 min at 4° C.). The post-nuclear supernatant fraction was ultra-centrifuged ([…] for 5 min at 4° C.) using Beckman Table-top ultracentrifuge. LD fraction with the distinct white band on the preparation was removed with a pipetman and LD-free cytosol was used for FFA measurement. Cytosol FFA levels were measured using a commercial free fatty acid quantification kit from Abcam (ab65341).

[4] = system: rat articular chondrocytes; assay: Phase contrast microscopy of oleate-induced cell death; format: cell-based; conditions: 25 ng/ml TNF-α, 1.5 mM oleate; n=4

OC[C@H]1O[C@@H](n2cnc3cc(Cl)c(Cl)cc32)[C@H](O)[C@@H]1O [DRB, 5,6-dichlorobenzimidazol riboside]
influence on lipotoxicity of oleate/palmitate combination (viability) ([1]; 0.4 mM oleate with 0.6 or 1.6 mM palmitate): reciprocal influences on lipotoxicity
expression level of STAMP2 (STAMP2; DRB): decreased
level of FSP27 protein (FSP27; 100 μM DRB with 1 mM oleate): decreased the levels of FSP27 protein
expression level of FSP27 (FSP27; DRB): decreased
activation of caspase-7 and -3 (caspase-3 and -7): activated caspase-7 and -3
LD accumulation ([2]; DRB in cells treated with 0.4 mM oleate and 0.6 mM palmitate): significantly reduced the LD accumulation
LD size and LD accumulation ([2]; DRB pre-/co-treatment, 1 mM oleate): reversed oleate-induced LD enlargement; also recorded: reduces LD size and LD accumulation
total LD volume ([2]; co-treatment with DRB versus 1 mM oleate, n=4): significantly decreased
FFA level in the cytosol ([3]; 1.0 mM oleate with DRB versus without): significantly increased the FFA level in the cytosol
FFA level in the cytosol ([3]; cells treated with 0.6 mM palmitate and 0.4 mM oleate, n=4): significantly increased the FFA level in the cytosol

CCCCCCCCCCCCCCCCCC(=O)O [stearate, stearic acid]
cell viability ([1]; FFA alone at 0.5 to 2 mM): significantly reduced cell viability
expression level of STAMP2 (STAMP2; FFA at toxic concentrations): reduced the expression level of STAMP2

TNF-α
effect on oleate-induced cell death (viability) ([1]; 25 ng/ml TNF-α, 1.5 mM oleate): completely reversed 1.5 mM oleate-induced cell death; also recorded: prevented 1.5 mM oleate-induced cell death
effect on oleate-induced downregulation of STAMP2 protein (STAMP2; 25 ng/ml TNF-α, 1.5 mM oleate): completely reversed the 1.5 mM oleate-induced downregulation of the expression level of STAMP2 protein; also recorded: reversed 1.5 mM oleate (0)-induced downregulation of STAMP2 protein
effect on oleate-induced reduction of LD size and total LD volume ([2]; TNF-α, 1.5 mM oleate): completely reversed the 1.5 mM oleate-induced reduction in total LD volume; also recorded: reversed 1.5 mM oleate-induced reduction of LD size and total LD volume
effect on oleate-induced cell death (phase contrast microscopy) [4]: prevented oleate-induced cell death

zVAD-fmk
effect on oleate-induced cell death (viability) ([1]; zVAD-fmk with 1.5 mM oleate): significantly prevented 1.5 mM oleate-induced cell death
